Laboratory results taken from US12077503B2, “Substituted cyclic amides and their use as herbicides” (FMC CORPORATION, priority 2015, dated 2024).

Key:
Type in all cases: in vivo
[1] = system: ryegrass, Italian (Italian ryegrass, Lolium multiflorum); assay: Test A postemergence; conditions: Lolium multiflorum, post-emergence, 240 h, postemergence, read-out: Ryegrass, Italian plant response rating
Outline: (§1)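 Visual injury, scored on a 0–100 scale relative to untreated controls, was recorded about 10 d after application. Treatments were a preemergence soil spray over planted seeds or a postemergence spray on plants at the one- to two-leaf stage, 2 to 10 cm tall, all in loam soil–sand blend in the greenhouse.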

[2] = system: Galium (catchweed bedstraw, Galium aparine); assay: Test A postemergence; conditions: Galium, post-emergence, 240 h, postemergence, read-out: Galium plant response rating
Outline: as §1

[3] = system: ragweed (common ragweed, Ambrosia elatior); assay: Test A postemergence; conditions: Ambrosia artemisiifolia, post-emergence, 240 h, postemergence, read-out: Ragweed plant response rating
Outline: as §1

[4] = system: barnyardgrass (Echinochloa crus-galli); assay: Test A postemergence; conditions: Echinochloa crus-galli, post-emergence, 240 h, postemergence, read-out: Barnyardgrass plant response rating
Outline: as §1

[5] = system: blackgrass (Alopecurus myosuroides); assay: Test A postemergence; conditions: Alopecurus myosuroides, post-emergence, 240 h, postemergence, read-out: Blackgrass plant response rating
Outline: as §1

[6] = system: giant foxtail (Setaria faberii); assay: Test A postemergence; conditions: Setaria faberi, post-emergence, 240 h, postemergence, read-out: Foxtail, Giant plant response rating
Outline: as §1

Kochia (Kochia scoparia) [7] = assay: Test A postemergence; conditions: Bassia scoparia, post-emergence, 240 h, postemergence, read-out: Kochia plant response rating
Outline: as §1

[8] = system: pigweed (Amaranthus retroflexus); assay: Test A postemergence; conditions: Amaranthus retroflexus, post-emergence, 240 h, postemergence, read-out: Pigweed plant response rating
Outline: as §1

[9] = system: wheat (Triticum aestivum); assay: Test A postemergence; conditions: Triticum aestivum, post-emergence, 240 h, postemergence, read-out: Wheat plant response rating
Outline: as §1

corn (Zea mays) = assay: Test A postemergence; conditions: Zea mays, post-emergence, 240 h, postemergence, read-out: Corn plant response rating
Outline: as §1

[10] = system: ryegrass, Italian (Italian ryegrass, Lolium multiflorum); assay: Test A preemergence; conditions: Lolium multiflorum, pre-emergence, 240 h, preemergence, 0 to 100 scale where 0 is no effect and 100 is complete control, read-out: Ryegrass, Italian plant response rating
Outline: as §1

[11] = system: ragweed (common ragweed, Ambrosia elatior); assay: Test A preemergence; conditions: Ambrosia artemisiifolia, pre-emergence, 240 h, preemergence, 0 to 100 scale where 0 is no effect and 100 is complete control, read-out: Ragweed plant response rating
Outline: as §1

[12] = system: barnyardgrass (Echinochloa crus-galli); assay: Test A preemergence; conditions: Echinochloa crus-galli, pre-emergence, 240 h, preemergence, read-out: Barnyardgrass plant response rating
Outline: as §1

Kochia (Kochia scoparia) [13] = assay: Test A preemergence; conditions: Bassia scoparia, pre-emergence, 240 h, preemergence, 0 to 100 scale where 0 is no effect and 100 is complete control, read-out: Kochia plant response rating
Outline: as §1

[14] = system: pigweed (Amaranthus retroflexus); assay: Test A preemergence; conditions: Amaranthus retroflexus, pre-emergence, 240 h, preemergence, 0 to 100 scale where 0 is no effect and 100 is complete control, read-out: Pigweed plant response rating
[15] = 125 g ai/ha, visual injury on 0 to 100 scale (0 no effect, 100 complete control), approx. 10 d
[16] = 500 g ai/ha, 0 to 100 scale, 0 is no effect, 100 is complete control

Compound: CN1C[C@H](c2cc(C(F)F)cs2)[C@@H](C(=O)Nc2ccccc2F)C1=O [Compound 1120]
- pest or weed control at 125 g/ha [1, 15]: 20%
- pest or weed control at 500 g/ha [1, 16]: 40%
- pest or weed control at 125 g/ha [2, 15]: 40%
- pest or weed control at 500 g/ha [2, 16]: 60%
- pest or weed control at 125 g/ha [3, 15]: 0%
- pest or weed control at 500 g/ha [3, 16]: 50%
- pest or weed control at 125 g/ha [4, 15]: 90%
- pest or weed control at 500 g/ha [4, 16]: 90%
- pest or weed control at 125 g/ha [5, 15]: 30%
- pest or weed control at 500 g/ha [5, 16]: 50%
- pest or weed control at 125 g/ha [6, 15]: 90%
- pest or weed control at 500 g/ha [6, 16]: 90%
- pest or weed control at 125 g/ha (Kochia (Kochia scoparia) [7]; [15]): 20%
- pest or weed control at 500 g/ha (Kochia (Kochia scoparia) [7]; [16]): 70%
- pest or weed control at 125 g/ha [8, 15]: 0%
- pest or weed control at 500 g/ha [8, 16]: 20%
- plant injury at 125 g/ha [9, 15]: 20%
- plant injury at 500 g/ha [9, 16]: 50%
- plant injury at 125 g/ha (corn (Zea mays); [15]): 0%
- plant injury at 500 g/ha (corn (Zea mays); [16]): 60%
- pest or weed control at 125 g/ha ([10]; 125 g ai/ha, approx. 10 d): 20%
- pest or weed control at 500 g/ha ([10]; 500 g ai/ha): 40%
- pest or weed control at 125 g/ha ([11]; 125 g ai/ha, approx. 10 d): 40%
- pest or weed control at 500 g/ha ([11]; 500 g ai/ha): 50%
- pest or weed control at 125 g/ha ([12]; 125 g ai/ha, 0 to 100 scale where 0 is no effect and 100 is complete control, approx. 10 d): 90%
- pest or weed control at 500 g/ha ([12]; 500 g ai/ha, visual injury rating about 10 d after treatment, 0 to 100 scale (0 no effect, 100 complete control)): 100%
- pest or weed control at 125 g/ha (Kochia (Kochia scoparia) [13]; 125 g ai/ha, approx. 10 d): 40%
- pest or weed control at 500 g/ha (Kochia (Kochia scoparia) [13]; 500 g ai/ha): 70%
- pest or weed control at 125 g/ha ([14]; 125 g ai/ha, approx. 10 d): 0%
- pest or weed control at 500 g/ha ([14]; 500 g ai/ha): 50%
